Measured values from ChEMBL document CHEMBL1932921, “Synthesis and anticonvulsant evaluation of some new 2,3,8-trisubstituted-4(3H)-quinazoline derivatives” (Bioorg Med Chem Lett, 2012).
The source made the active and inactive calls. The calls are words filed in the database; no cut-off is given here.

Tests used:
[1] = Therapeutic index, ratio of LD50 for mortality to ED50 for anticonvulsant activity in Swiss albino mouse; type: organism-based; settings: in vivo, read-out: TI
[2] = Neurotoxicity in ip dosed Swiss albino mouse measured after 30 mins by chimney test; type: toxicity, organism-based; settings: in vivo
Mus musculus [3] = assay: Anticonvulsant activity in Swiss albino mouse assessed as protection against picrotoxin-induced seizure at 0.5 mmol/kg, ip administered 30 mins before challenge; type: functional, organism-based
Mus musculus [4] = assay: Anticonvulsant activity in Swiss albino mouse assessed as protection against strychnine-induced seizure at 0.5 mmol/kg, ip administered 30 mins before challenge; type: functional, organism-based
Mus musculus [5] = assay: Anticonvulsant activity in Swiss albino mouse assessed as protection against maximal electroshock-induced seizure at 0.5 mmol/kg, ip administered 30 mins before challenge; type: functional
Mus musculus [6] = species on record: Mus musculus; assay: Protective index, ratio of TD50 for neurotoxicity to ED50 for anticonvulsant activity in Swiss albino mouse; type: functional
[7] = Neurotoxicity in ip dosed Swiss albino mouse assessed as mortality; type: toxicity, organism-based; settings: in vivo
Mus musculus [8] = assay: Anticonvulsant activity in ip dosed Swiss albino mouse assessed as protection against PTZ-induced seizure compound administered 30 mins before challenge measured after 60 mins; type: functional
Mus musculus [9] = assay: Anticonvulsant activity in Swiss albino mouse assessed as protection against PTZ-induced seizure at 0.5 mmol/kg, ip administered 30 mins before challenge; type: functional
Mus musculus [10] = assay: Anticonvulsant activity in Swiss albino mouse assessed as protection against PTZ-induced clonic seizure at 300 mg/kg, ip administered 30 mins before challenge; type: functional; settings: route intraperitoneal
Mus musculus [11] = assay: Anticonvulsant activity in Swiss albino mouse assessed as protection against maximal electroshock-induced seizure at 300 mg/kg, ip administered 30 mins before challenge; type: functional; settings: route intraperitoneal
Mus musculus [12] = assay: Anticonvulsant activity in Swiss albino mouse assessed as protection against PTZ-induced clonic seizure at 200 mg/kg, ip administered 30 mins before challenge; type: functional; settings: route intraperitoneal
Mus musculus [13] = assay: Anticonvulsant activity in Swiss albino mouse assessed as protection against maximal electroshock-induced seizure at 200 mg/kg, ip administered 30 mins before challenge; type: functional; settings: route intraperitoneal

| Structure (SMILES) | therapeutic index [1] | TD50 at 0.5 h [2] | inhibition (Mus musculus [3]) | inhibition (Mus musculus [4]) | inhibition in vivo at 500 µmol/kg (Mus musculus [5]) | PI (Mus musculus [6]) | LD50 [7] | ED50 (Mus musculus [8]) | inhibition in vivo at 500 µmol/kg (Mus musculus [9]) | inhibition in vivo at 300 mg/kg (Mus musculus [10]) | inhibition in vivo at 300 mg/kg (Mus musculus [11]) | inhibition in vivo at 200 mg/kg (Mus musculus [12]) | inhibition in vivo at 200 mg/kg (Mus musculus [13]) |
| --- | --- | --- | --- | --- | --- | --- | --- | --- | --- | --- | --- | --- | --- |
| CCOC(=O)NNC(=O)COc1cccc2c(=O)n(-c3ccccc3C)c(C)nc12 | 1.53 | 246 mg/kg | inactive | inactive | 100% | 2.61 | 418 mg/kg | 160 mg/kg | 100% | – | – | – | – |
| Cc1ccccc1-n1c(C)nc2c(OCC(=O)N/N=C\c3ccccc3F)cccc2c1=O | – | – | inactive | inactive | 50% | – | – | – | 66% | – | – | – | – |
| CCCC(CCC)C(=O)[O-].[Na+] [VALPROATE SODIUM] | – | 450 mg/kg | – | – | – | – | 500 mg/kg | 300 mg/kg | – | 100% | 100% | – | – |
| COc1ccccc1/C=N\NC(=O)COc1cccc2c(=O)n(-c3ccccc3C)c(C)nc12 | – | – | inactive | inactive | 0% | – | – | – | 33% | – | – | – | – |
| Cc1ccccc1-n1c(C)nc2c(OCC(=O)NNC(=S)NN)cccc2c1=O | – | – | inactive | inactive | 33% | – | – | – | 66% | – | – | – | – |
| Cc1ccccc1-n1c(C)nc2c(OCC(=O)N/N=C\c3ccccc3)cccc2c1=O | – | – | inactive | inactive | 0% | – | – | – | 50% | – | – | – | – |
| Cc1ccccc1-n1c(C)nc2c(OCC(=O)NCCO)cccc2c1=O | – | – | inactive | inactive | 0% | – | – | – | 50% | – | – | – | – |
| Cc1ccccc1-n1c(C)nc2c(OCC(=O)NNC(=O)NN)cccc2c1=O | – | – | inactive | inactive | 0% | – | – | – | 50% | – | – | – | – |
| Cc1ccccc1-n1c(C)nc2c(OCC(=O)NN)cccc2c1=O | 10.2 | 267 mg/kg | inactive | inactive | 50% | 2.72 | 1000 mg/kg | 98 mg/kg | 100% | – | – | – | – |
| Cc1ccccc1-n1c(C)nc2c(OCC(=O)NNC(N)=O)cccc2c1=O | – | – | inactive | inactive | 0% | – | – | – | 50% | – | – | – | – |
| Cc1ccccc1-n1c(C)nc2ccccc2c1=O [METHAQUALONE] | 2.5 | 400 mg/kg | – | – | – | 2 | 500 mg/kg | 200 mg/kg | – | – | – | 100% | 100% |
| CSC(=S)NNC(=O)COc1cccc2c(=O)n(-c3ccccc3C)c(C)nc12 | 3.34 | 287 mg/kg | inactive | inactive | 100% | 1.91 | 501 mg/kg | 150 mg/kg | 100% | – | – | – | – |
